From patent publication EP0317053B1, “Trigramin- a platelet aggregation inhibiting polypeptide” (Temple University of the Commonwealth System of Higher …, priority 1987, dated 1989)
Where no end group is shown, it is not given here.

What was measured:
GPIIb-GPIIIa complex = assay: Binding of 125I-trigramin to human platelets; conditions: both ligands
[1] = Hamster mesentery bleeding time during continuous intravenous infusion; assay type: in vivo, golden Syrian hamsters; conditions: 2 ng/kg/min; one hamster; positive control
Method: Female golden Syrian hamsters (90-150 g) were maintained on food and water ad libitum, but fasted overnight prior to their use in the present experiment. After the administration of anesthesia (65 mg/kg sodium pentobarbital, i.p.), the animals were shaved in preparation for surgery. The trachea was intubated with PE-100 polyethylene tubing to facilitate spontaneous breathing. Cannulation of the right femoral vein was performed to provide an intravenous route for supplemental anesthesia as well as for the administration of various control and experiment agents. A catheter was introduced into the right carotid artery for the continuous monitoring of arterial blood pressure, and a rectal temperature probe was inserted. […]
The shaved abdomen was opened by a mid-line incision and a portion of the small intestine was exteriorized and draped over a lucite pedestal. […] Bleeding was observed through Zeiss dissecting microscope (20 X) and bleeding time was recorded from the time of the cut until the cessation of bleeding by the formation of a hemostatic plug. Each animal was used as its own control with bleeding time determined both during the infusion of saline and the selected experimental agent. […] Four additional animals were infused with trigramin while arterial blood pressure was continuously monitored to determine if it had any direct effect on systemic blood pressure. […]

Row | Compound | inhibition of the binding of ¹²⁵I-trigramin and of ¹²⁵I-fibrinogen to human platelets (GPIIb-GPIIIa complex) | time after the completion of the infusion until bleeding ceased [1]
1 | GQQHHLGGAKQAGDV | inhibited | 
2 | CC#CCC(C)[C@H](O)/C=C/[C@@H]1[C@H]2C/C(=C/CCCC(=O)O)C[C@H]2C[C@H]1O (some centres unmarked) [Iloplrost] |  | approximately 9 minutes
